Results reported in the CheMixHub viscosity set.

Experiment: xn = mol fraction of the nth substance listed

O=C(O)c1ccccc1 + CC(C)O
viscosity [mPa·s], 101 kPa
Details	x1 = 0.000601	x1 = 0.00181	x1 = 0.00276	x1 = 0.0042	x1 = 0.00508	x1 = 0.005992
298.15 K	2.579	2.574	2.569	2.562	2.559	2.556
308.15 K	1.932	1.927	1.922	1.916	1.914	1.912
318.15 K	1.496	1.49	1.486	1.481	1.479	1.477

CN(C)N + O
293.15 K, 101.3 kPa
Details	viscosity [mPa·s]
x1 = 0.0499	2.05
x1 = 0.1018	3.64
x1 = 0.1471	6.22
x1 = 0.2	8.22
x1 = 0.2498	8.46
x1 = 0.2984	7.51
x1 = 0.3466	6.25
x1 = 0.3995	4.78
x1 = 0.4482	4.23
x1 = 0.4994	2.95
x1 = 0.5955	2.28
x1 = 0.6986	1.27
x1 = 0.8064	0.9
x1 = 0.8999	0.69

CCC(C)=O + CCCCO
viscosity [mPa·s]
Details	298.15 K	308.15 K	318.15 K
100 kPa, x1 = 0.0997	–	1.465	–
100 kPa, x1 = 0.1999	–	1.115	–
101.3 kPa, x2 = 0.0987	0.428	0.385	0.349
101.3 kPa, x2 = 0.1988	0.476	0.425	0.382
101.3 kPa, x2 = 0.3004	0.538	0.476	0.425
101.3 kPa, x2 = 0.3991	0.616	0.54	0.478
101.3 kPa, x2 = 0.4973	0.722	0.626	0.547
101.3 kPa, x2 = 0.5972	0.861	0.737	0.636
101.3 kPa, x2 = 0.6979	1.06	0.891	–
101.3 kPa, x2 = 0.7995	1.361	1.121	0.931
101.3 kPa, x2 = 0.9028	–	1.458	1.188

COc1ccccc1N + COCCO
303.15 K, 101 kPa
Details	viscosity [mPa·s]
x1 = 0.0724	2.225
x1 = 0.1494	2.507
x1 = 0.2314	2.808
x1 = 0.319	3.132
x1 = 0.4127	3.478
x1 = 0.5131	3.794
x1 = 0.6211	4.083
x1 = 0.7376	4.343
x1 = 0.8635	4.614

COc1ccccc1N + CCC(C)O
viscosity [mPa·s], 101 kPa
Details	x1 = 0.1106	x1 = 0.1844	x1 = 0.2647	x1 = 0.3523	x1 = 0.4825	x1 = 0.5919	x1 = 0.6713	x1 = 0.7566	x1 = 0.8969
303.15 K	2.843	3.007	3.188	3.385	3.681	3.931	4.114	4.314	4.656
308.15 K	2.398	2.561	2.739	2.935	3.229	3.483	3.671	3.878	4.233
313.15 K	2.083	2.242	2.413	2.602	2.891	3.143	3.331	3.541	3.906
318.15 K	1.788	1.942	2.107	2.29	2.572	2.825	3.017	3.231	3.6
